Our source for the IC50 values is ChEMBL document CHEMBL1201862, “PubChem BioAssay data set” (2004).

In general, IC50 refers to the concentration at which inhibition is half-maximal.

The structures appear in SMILES notation. The source made the active and inactive calls. For most assays here, no stated cut-off is given here; in the data, actives have a measured IC50 and inactives only a lower limit. A value given as a limit tells only on which side of the number the result lay.

Test [1] deals with Signal transducer and activator of transcription 3 (Homo sapiens, UniProt P40763). The experiment in a line: STAT3 blockade with qPCR and toxicity readouts – cell-based, STAT1 panel, cytotoxicity, late-stage follow-up, panel member STAT3 Inhibition (AID 2078).
The target of test [2] is Signal transducer and activator of transcription 1-alpha/beta (Homo sapiens, UniProt P42224). The experiment in a line: STAT3 blockade with qPCR and toxicity readouts – cell-based, STAT1 panel, cytotoxicity, late-stage follow-up, panel member STAT1 Inhibition (AID 2078).
The target of test [3] is T1, Tyrosine-protein phosphatase non-receptor type 22 (Homo sapiens, UniProt Q9Y2R2).
T1 sequence (Q9Y2R2 whole entry): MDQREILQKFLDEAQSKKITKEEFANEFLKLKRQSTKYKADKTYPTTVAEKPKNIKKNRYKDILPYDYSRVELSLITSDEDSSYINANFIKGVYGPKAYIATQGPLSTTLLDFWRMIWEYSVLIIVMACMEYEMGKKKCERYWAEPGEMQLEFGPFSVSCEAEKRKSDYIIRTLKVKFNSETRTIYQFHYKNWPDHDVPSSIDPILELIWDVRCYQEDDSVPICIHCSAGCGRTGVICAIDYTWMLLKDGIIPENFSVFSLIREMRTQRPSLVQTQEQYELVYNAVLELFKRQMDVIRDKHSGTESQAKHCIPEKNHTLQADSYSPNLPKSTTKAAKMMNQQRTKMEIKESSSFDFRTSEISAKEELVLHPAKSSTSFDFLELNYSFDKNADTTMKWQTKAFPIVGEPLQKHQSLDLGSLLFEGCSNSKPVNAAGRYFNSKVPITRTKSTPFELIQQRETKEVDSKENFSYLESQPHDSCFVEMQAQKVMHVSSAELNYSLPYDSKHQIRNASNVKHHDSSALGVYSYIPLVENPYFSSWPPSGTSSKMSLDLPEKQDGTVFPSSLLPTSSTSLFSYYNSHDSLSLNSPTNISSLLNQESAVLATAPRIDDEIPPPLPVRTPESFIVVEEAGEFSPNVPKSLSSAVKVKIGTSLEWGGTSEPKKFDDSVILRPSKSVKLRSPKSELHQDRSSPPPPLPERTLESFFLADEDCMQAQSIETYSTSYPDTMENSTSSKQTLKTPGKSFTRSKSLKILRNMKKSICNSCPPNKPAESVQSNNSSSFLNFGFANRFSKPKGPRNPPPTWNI
The test is classed as functional.

In test [4] the target is T1, Tyrosine-protein phosphatase non-receptor type 22. It counts as functional. The source holds these as a separate data set.
In test [5] the target is T2, Tyrosine-protein phosphatase non-receptor type 7 (Homo sapiens, UniProt P35236).
T2 sequence (P35236 whole entry): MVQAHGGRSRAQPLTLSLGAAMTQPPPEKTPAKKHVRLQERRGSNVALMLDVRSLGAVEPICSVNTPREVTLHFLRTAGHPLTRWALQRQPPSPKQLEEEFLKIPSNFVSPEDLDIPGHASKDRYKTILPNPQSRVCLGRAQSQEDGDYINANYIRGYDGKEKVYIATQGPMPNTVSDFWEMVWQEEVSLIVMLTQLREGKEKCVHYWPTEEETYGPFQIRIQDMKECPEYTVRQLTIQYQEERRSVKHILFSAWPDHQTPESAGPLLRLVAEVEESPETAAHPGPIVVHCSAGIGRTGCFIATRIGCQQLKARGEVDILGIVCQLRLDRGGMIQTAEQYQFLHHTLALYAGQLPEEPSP
It counts as functional.

Test [6] addresses Nucleotide-binding oligomerization domain-containing protein 2 (Homo sapiens, UniProt Q9HC29). The experiment in a line: inhibition of MDP-driven NOD2 NF-kB reporter – cell-based, set 3, SAR follow-up (AID 2799). The test is classed as functional.
For the next test, the system named is HEK293. Description: SAR analysis of compounds that are cytotoxic to HEK293 - Set 3. [Related pubchem assays (depositor defined):AID1575, AID1578, AID1848, AID1849, AID2001, AID2333, AID2334, AID2335, AID2337, AID2469]. The test is classed as functional, cell-based. Particulars: Homo sapiens.
Test [7] addresses Glyceraldehyde-3-phosphate dehydrogenase (Homo sapiens, UniProt P04406).
Test [8] concerns the target T3, Nucleotide-binding oligomerization domain-containing protein 1 (Homo sapiens, UniProt Q9Y239).
T3 sequence (Q9Y239 whole entry): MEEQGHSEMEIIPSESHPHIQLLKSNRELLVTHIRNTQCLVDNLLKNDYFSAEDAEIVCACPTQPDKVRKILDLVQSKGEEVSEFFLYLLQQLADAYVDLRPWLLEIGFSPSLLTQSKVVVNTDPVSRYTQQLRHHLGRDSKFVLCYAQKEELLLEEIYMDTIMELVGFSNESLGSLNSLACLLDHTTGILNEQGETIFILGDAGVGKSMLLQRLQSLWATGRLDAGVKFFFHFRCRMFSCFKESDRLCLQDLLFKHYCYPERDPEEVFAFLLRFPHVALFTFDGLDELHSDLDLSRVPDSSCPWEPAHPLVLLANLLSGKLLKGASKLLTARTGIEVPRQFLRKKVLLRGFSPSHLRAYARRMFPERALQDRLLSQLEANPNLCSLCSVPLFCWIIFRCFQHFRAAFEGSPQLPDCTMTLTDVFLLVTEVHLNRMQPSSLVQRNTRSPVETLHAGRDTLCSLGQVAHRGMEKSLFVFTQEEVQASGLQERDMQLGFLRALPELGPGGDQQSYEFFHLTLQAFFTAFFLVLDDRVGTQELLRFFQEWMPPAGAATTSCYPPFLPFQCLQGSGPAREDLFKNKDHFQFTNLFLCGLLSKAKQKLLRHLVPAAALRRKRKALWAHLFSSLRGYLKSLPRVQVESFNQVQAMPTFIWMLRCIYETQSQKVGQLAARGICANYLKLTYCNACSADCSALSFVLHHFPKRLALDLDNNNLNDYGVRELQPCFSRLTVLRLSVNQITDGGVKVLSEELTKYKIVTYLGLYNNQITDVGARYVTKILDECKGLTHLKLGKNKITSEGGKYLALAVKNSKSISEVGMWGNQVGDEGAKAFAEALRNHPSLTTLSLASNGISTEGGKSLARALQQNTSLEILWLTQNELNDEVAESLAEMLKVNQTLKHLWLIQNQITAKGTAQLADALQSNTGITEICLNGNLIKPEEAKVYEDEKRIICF
The experiment in a line: SAR analysis of compounds that inhibit NOD1 - Set 3. [Related pubchem assays (depositor defined):AID1566, AID1575, AID1578, AID1849, AID1852, AID2333, AID2335, AID2466]. The test is classed as functional.

Test [9] addresses T4, Bcl-2-related protein A1 (Mus musculus, UniProt Q07440).
T4 sequence (Q07440 whole entry): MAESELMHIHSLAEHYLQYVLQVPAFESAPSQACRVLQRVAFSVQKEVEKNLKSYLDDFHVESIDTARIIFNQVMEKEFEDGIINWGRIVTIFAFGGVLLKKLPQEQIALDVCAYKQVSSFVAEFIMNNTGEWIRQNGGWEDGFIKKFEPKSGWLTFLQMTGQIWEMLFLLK
The experiment in a line: small-molecule antagonists of Bfl-1/BH3 interaction – biochemical, TR-FRET, mouse Bfl-1, confirmation (AID 621). (In general: TR-FRET usually uses a lanthanide donor and a delayed reading to cut background.)

In test [10] the target is T4, Bcl-2-related protein A1. Description: Bfl-1 binding inhibitors, SAR follow-up, biochemical, fluorescence polarization (AID 1070). On the technique in general: Polarisation of emitted light reports the rotation of a fluorescent probe.
A further test addresses Tumor necrosis factor (Homo sapiens, UniProt P01375). The experiment in a line: analog potency on TNFa NF-kB signaling – cell-based, set 3, SAR follow-up (AID 2801). It counts as functional.

Signal transducer and activator of transcription 3, sequence (P40763 whole entry): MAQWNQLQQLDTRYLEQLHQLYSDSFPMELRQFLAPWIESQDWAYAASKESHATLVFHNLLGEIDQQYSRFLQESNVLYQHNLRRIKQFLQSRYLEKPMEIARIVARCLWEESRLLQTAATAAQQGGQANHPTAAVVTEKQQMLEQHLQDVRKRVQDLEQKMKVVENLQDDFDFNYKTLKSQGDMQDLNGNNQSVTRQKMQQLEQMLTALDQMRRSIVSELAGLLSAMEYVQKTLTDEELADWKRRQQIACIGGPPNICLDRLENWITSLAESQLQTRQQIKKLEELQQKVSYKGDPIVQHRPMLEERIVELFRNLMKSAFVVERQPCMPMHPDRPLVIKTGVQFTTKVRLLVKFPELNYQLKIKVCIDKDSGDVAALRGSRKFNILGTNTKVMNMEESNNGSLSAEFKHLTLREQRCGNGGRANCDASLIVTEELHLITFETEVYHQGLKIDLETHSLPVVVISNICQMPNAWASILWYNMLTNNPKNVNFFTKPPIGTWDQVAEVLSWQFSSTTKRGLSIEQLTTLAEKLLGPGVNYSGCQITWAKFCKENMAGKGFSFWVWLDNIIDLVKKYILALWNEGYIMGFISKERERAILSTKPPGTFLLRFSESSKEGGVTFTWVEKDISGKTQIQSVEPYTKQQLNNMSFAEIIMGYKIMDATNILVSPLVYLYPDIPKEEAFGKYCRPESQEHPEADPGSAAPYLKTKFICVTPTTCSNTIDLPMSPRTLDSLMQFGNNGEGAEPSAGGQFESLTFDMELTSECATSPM
Glyceraldehyde-3-phosphate dehydrogenase, sequence (P04406 whole entry, the tested form may be a part): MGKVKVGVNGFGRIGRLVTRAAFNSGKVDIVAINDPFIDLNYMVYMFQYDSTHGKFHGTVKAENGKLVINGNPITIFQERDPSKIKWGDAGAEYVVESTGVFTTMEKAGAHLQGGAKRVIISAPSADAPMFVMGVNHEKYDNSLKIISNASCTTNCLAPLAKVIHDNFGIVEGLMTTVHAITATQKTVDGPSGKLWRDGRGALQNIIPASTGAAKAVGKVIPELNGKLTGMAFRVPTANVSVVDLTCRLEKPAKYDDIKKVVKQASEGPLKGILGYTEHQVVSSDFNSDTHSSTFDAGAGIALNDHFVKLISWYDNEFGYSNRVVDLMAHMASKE
Signal transducer and activator of transcription 1-alpha/beta, sequence (P42224 whole entry): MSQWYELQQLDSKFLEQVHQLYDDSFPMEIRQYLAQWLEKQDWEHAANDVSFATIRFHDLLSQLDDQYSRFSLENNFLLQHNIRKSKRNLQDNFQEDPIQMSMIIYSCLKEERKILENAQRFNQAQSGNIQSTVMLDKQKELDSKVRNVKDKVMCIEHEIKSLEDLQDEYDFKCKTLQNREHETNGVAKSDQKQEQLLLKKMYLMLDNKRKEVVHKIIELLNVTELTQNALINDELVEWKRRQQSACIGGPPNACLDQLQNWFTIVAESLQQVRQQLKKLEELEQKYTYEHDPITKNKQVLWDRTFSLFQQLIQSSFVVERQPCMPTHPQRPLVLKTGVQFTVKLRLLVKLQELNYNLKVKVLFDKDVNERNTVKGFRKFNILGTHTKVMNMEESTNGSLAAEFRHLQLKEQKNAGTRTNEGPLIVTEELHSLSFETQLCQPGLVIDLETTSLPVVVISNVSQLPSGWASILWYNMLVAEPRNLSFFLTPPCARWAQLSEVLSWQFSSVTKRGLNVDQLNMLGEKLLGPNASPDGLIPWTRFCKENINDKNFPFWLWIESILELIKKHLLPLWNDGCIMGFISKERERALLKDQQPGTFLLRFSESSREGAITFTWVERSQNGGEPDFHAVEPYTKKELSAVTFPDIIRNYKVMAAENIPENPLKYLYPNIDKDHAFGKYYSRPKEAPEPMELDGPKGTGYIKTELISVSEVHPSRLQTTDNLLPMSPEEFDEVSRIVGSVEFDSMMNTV
Nucleotide-binding oligomerization domain-containing protein 2, sequence (Q9HC29 whole entry, the tested form may be a part): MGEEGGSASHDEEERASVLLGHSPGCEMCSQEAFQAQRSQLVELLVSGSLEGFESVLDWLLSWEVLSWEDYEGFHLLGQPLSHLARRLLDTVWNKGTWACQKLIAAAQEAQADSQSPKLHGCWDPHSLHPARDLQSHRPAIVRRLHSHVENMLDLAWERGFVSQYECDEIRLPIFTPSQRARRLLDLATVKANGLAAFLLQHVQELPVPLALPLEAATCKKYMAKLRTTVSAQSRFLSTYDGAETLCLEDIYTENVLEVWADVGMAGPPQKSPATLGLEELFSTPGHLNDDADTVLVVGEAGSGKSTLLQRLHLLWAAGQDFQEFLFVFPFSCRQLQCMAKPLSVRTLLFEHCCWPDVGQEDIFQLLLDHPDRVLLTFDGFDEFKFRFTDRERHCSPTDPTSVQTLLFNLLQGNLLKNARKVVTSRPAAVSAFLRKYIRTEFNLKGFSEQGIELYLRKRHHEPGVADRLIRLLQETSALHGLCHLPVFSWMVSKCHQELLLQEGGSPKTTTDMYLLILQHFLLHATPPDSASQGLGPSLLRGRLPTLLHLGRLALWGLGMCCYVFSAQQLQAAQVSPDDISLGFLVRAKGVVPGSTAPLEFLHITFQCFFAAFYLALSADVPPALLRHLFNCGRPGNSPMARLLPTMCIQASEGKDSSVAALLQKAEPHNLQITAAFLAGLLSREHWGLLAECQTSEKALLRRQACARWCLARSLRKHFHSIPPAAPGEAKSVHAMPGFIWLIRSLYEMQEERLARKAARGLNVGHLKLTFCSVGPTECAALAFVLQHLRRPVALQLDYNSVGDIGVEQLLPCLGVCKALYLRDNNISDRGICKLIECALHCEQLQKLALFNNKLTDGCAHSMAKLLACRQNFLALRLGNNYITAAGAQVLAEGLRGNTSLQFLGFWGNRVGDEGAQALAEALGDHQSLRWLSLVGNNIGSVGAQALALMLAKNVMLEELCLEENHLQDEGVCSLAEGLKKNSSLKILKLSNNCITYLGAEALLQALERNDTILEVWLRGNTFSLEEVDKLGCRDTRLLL
Tumor necrosis factor, sequence (P01375 whole entry): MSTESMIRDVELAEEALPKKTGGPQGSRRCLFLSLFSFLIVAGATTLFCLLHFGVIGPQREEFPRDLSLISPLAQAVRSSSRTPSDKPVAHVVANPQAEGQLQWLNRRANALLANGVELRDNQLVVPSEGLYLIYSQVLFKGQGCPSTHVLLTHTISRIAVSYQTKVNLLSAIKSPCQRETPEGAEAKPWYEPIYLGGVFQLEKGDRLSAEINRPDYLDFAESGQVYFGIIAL

Regarding `COc1ccc(CN2CCN(c3ncnc4sc5c(c34)CCCCC5)CC2)cc1`, the IC50 is > 18.6 µM (inactive) in test [1] and > 55.7 µM (inactive) in [2].

With `O=C(C[S+]([O-])CC(=O)Nc1ccc(Cl)cc1)NCC1OCCc2ccccc21` (configuration not stated), the IC50 in [3], in [4] and in test [5] was > 79.4 µM (inactive) each time.

Turning to `COc1ccc(-c2cc(N)n(S(=O)(=O)c3ccc(C(C)(C)C)cc3)n2)cc1OC`, the IC50 in test [6] was > 20 µM (inactive); with HEK293, > 20 µM (inactive); in test [7], > 100 µM (not active); in test [8], > 20 µM (inactive); against Bcl-2-related protein A1 [9] it was > 100 µM (not active); at Bcl-2-related protein A1 [10], > 100 µM (not active). Besides, the IC50 on Tumor necrosis factor was > 20 µM (inactive).
